Test results: patent US20080039410A1, “Inositol 1,4,5-Trisphosphate Receptor Mutants and Uses Thereof” (priority 2004, published 2008)
“Also recorded” adds a separate entry of the source.

Tests used:
S2+ InsP3R-1 = target: T1, S2+ InsP3R-1 (Rattus norvegicus, UniProt P29994, S1756E); assay: Flash photolysis of caged InsP3 (ci-IP3/PM), Fluo-4, DT-40 3ko cells expressing S2+ InsP3R-1 constructs; type: cell-based; settings: UV flash 0.5-5 ms
T1 construct: The entire receptor DNA was excised from the plasmid using EcoRI and ligated into the plasmid MXT-1; expressed in transfected cells; host or cells: DT-40 3ko (chicken B cells lacking all InsP3R), co-transfected with m3 muscarinic receptor and HcRed
T1 sequence (P29994 1-2749 isoform P29994-3 S1755E): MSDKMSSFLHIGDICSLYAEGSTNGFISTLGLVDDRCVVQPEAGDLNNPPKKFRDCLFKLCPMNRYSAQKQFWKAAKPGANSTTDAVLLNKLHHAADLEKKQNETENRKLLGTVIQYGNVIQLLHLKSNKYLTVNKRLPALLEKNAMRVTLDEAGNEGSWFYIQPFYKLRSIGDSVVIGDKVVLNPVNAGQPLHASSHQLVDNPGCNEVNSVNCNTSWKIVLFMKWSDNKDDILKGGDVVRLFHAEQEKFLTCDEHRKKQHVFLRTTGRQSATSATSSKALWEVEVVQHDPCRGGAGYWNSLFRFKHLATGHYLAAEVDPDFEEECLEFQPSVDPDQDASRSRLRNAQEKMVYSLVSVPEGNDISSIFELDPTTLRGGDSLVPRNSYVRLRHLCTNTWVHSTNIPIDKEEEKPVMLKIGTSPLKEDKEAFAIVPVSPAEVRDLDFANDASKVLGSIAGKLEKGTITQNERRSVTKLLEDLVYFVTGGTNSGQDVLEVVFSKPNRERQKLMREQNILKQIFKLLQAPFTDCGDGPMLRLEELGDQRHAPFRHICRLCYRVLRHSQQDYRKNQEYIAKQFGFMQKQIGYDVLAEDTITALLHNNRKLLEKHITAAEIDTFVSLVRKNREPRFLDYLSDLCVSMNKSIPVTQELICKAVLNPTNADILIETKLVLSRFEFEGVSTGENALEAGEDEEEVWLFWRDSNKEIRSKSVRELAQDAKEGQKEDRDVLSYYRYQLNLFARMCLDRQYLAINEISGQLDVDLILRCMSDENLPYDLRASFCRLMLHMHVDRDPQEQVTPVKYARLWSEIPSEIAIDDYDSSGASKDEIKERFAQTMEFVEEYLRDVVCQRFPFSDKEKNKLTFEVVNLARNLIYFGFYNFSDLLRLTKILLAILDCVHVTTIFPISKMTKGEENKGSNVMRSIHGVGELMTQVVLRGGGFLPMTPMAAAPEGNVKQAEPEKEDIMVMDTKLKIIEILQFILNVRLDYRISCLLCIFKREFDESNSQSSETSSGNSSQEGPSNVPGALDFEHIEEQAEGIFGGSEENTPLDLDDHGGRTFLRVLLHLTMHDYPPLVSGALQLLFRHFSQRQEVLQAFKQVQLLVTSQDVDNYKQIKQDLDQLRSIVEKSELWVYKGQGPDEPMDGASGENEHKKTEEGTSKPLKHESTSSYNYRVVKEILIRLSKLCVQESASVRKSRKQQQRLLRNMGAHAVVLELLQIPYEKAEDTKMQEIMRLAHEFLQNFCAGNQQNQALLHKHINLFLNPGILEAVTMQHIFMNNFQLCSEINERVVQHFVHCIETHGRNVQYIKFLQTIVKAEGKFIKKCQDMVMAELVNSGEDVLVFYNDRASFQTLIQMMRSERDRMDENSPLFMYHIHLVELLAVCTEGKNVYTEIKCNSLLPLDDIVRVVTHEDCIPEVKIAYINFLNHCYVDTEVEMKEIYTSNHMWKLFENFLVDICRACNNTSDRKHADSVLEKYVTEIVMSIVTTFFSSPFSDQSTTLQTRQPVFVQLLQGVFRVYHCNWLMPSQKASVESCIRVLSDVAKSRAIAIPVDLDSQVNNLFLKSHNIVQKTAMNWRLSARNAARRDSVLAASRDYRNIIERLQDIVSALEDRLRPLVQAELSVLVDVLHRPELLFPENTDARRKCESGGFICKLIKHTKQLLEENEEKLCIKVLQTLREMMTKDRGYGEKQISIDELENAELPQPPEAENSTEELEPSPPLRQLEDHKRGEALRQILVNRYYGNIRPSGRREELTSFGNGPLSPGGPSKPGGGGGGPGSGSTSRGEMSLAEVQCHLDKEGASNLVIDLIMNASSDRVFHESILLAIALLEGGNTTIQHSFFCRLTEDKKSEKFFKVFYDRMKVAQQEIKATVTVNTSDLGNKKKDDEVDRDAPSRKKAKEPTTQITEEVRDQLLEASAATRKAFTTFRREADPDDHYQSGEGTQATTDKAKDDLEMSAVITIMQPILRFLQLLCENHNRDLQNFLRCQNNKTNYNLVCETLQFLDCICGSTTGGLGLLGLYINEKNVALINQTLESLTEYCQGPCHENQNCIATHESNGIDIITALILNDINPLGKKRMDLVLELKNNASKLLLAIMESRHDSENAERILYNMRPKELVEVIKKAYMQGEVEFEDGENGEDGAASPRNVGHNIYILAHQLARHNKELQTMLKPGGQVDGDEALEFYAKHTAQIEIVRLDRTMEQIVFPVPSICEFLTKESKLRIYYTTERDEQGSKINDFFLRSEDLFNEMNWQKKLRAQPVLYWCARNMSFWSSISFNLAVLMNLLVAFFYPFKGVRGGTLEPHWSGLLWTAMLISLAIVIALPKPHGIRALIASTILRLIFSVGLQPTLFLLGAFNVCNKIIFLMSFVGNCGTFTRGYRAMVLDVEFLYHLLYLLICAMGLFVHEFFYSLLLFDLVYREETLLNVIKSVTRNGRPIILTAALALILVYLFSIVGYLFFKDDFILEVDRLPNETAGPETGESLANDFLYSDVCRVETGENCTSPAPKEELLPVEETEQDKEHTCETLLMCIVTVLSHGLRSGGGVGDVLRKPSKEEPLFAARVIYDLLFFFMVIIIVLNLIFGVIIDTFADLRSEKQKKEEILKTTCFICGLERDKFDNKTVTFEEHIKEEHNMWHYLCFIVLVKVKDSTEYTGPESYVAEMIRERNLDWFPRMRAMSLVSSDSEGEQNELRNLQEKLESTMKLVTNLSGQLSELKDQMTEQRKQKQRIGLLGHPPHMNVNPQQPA
Experimental: Transfected cells were simultaneously loaded by incubation with the visible wavelength indicator Fluo-4 and a cell permeable form of caged-inositol trisphosphate (ciIP3/PM) for 30 min. Ci-IP3/PM is a homologue of cm-IP3/PM [45] The 2- and 3-hydroxyls of the inositol ring were protected by an isopropylidene group in ci-IP3/PM, and were protected by a methoxymethylene group in cm-IP3/PM. Like cm-IP3/PM, ci-IP3/PM diffuses across cell membranes and induces internal calcium release upon photo-uncaging. A further period of approximately 30 min was allowed for de-esterification of both dye and cage. Cells were illuminated at 488±10 nm and fluorescence collected through a 525±25 nm band pass filter and captured using the Till Photonics imaging suite. […] Photolytic release was performed as previously described using a pulsed Xenon arc lamp (Till Photonics). […]
Transfected cells were simultaneously loaded with the visible wavelength indicator Fluo-4 and a cell-permeable form of caged inositol trisphosphate (ci-IP3/PM) for 30 min. ci-IP3/PM is a homologue of cm-IP3/PM. […] Cells were illuminated at 488±10 nm and fluorescence collected through a 525±25-nm bandpass filter and captured using the Till Photonics imaging suite. […]

S2− InsP3R-1 = assay: Flash photolysis of caged InsP3 (ci-IP3/PM), Fluo-4, Dt-40 3ko cells expressing S2− InsP3R-1 constructs; type: cell-based, rat
Sequence of S2− InsP3R-1 (P29994 1-604 limits assumed): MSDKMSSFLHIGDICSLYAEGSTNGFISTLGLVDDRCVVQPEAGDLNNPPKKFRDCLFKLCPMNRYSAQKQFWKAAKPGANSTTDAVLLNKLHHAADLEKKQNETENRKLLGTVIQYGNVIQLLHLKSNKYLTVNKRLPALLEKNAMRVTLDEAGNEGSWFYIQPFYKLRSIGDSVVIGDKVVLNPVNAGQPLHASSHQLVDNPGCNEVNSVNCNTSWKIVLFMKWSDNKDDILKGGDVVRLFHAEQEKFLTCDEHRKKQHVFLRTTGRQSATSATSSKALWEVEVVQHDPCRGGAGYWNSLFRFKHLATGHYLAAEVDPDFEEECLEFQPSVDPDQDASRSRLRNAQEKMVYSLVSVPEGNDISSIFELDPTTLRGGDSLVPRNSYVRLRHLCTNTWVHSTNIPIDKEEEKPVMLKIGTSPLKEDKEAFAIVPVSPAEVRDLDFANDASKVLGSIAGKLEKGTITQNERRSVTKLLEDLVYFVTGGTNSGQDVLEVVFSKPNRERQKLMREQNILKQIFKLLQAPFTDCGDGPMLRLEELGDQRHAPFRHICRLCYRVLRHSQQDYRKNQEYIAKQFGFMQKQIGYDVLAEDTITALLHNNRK
Experimental: Transfected cells were simultaneously loaded with the visible wavelength indicator Fluo-4 and a cell-permeable form of caged inositol trisphosphate (ci-IP3/PM) for 30 min. ci-IP3/PM is a homologue of cm-IP3/PM. The 2- and 3-hydroxyls of the inositol ring are protected by an isopropylidene group in ci-IP3/PM and are protected by a methoxymethylene group in cm-IP3/PM (45). Like cm-IP3/PM, ci- IP3/PM diffuses across cell membranes, and the PM group is hydrolyzed by cellular esterases, and Ca^2+ release can be induced upon photouncaging as i-IP3 is liberated from the cage and acts in a similar fashion to InSP3 at InsP3R^2. A further period of 30 min was allowed for de-esterification of both dye and cage. Cells were illuminated at 488±10 nm and fluorescence collected through a 525±25-nm bandpass filter and captured using the Till Photonics imaging suite. […] Photolytic release was performed as described previously by using a pulsed xenon arc lamp (Till Photonics). A high intensity (0.5-5 ms duration; 80 J) discharge of UV light (360±7.5 nm) was reflected onto the plane of focus by using a DM400 dichroic mirror and Nikon 40× oil immersion objective, 1.3 NA.
To investigate the consequences of InsP3R-1 phosphorylation, the Ca^2+ release properties of phosphomimetic mutations in the functionally important sites in both S2+ and S2− InsP3R-1 was analyzed in Dt-40 3ko cells. This cell line provides the only known InsP3R null background (42, 43). In initial experiments, a comparison was made between the sensitivity of Ca^2+ release by InsP3R-1 phosphomimetic mutations versus nonphosphorylatable alanine mutations at the sites. Dt-40 3ko cells were transfected with DNA encoding HcRed to facilitate identification of transfected cells and either S2− S1589E/S1755E InsP3R-1 (S2−EE) or S2− S1589A/S1755A (S2−AA). Ca^2+ release was monitored following flash photolysis of ci-IP3, a cell-permeable form of caged InSP3. This experimental paradigm provides a relatively direct assessment of the effects of InsP3R-1 phosphorylation on the Ca^2+ release process. […]

Substance | response to photolysis of ci-IP3 versus nonphosphorylatable mutant (S2+ InsP3R-1) | cells showing Ca^2+ release (>0.05% ΔF/F) (S2− InsP3R-1; 0.5 ms UV discharge) [%] | cells showing Ca^2+ release (S2− InsP3R-1; 1.25 ms UV flash) | response to photolysis of ci-IP3 versus nonphosphorylatable mutant (S2− InsP3R-1; UV flash 0.5-5 ms)
S2+SE: phosphomimetic S2+ InsP3R-1, long splice variant of S1755E | more robustly; also recorded: more sensitive than S2+SA | – | – | –
S2−EE: phosphomimetic S1589E/S1755E mutant of the short splice variant | – | ~60 | all cells | lower threshold of UV light exposure
